The values below come from patent publication US10858356B2, “Pyrazolopyridine derivative having GLP-1 receptor agonist effect” (Chugai Seiyaku Kabushiki Kaisha, priority 2016, dated 2020).

human GLP1R, sequence (P43220 24-463): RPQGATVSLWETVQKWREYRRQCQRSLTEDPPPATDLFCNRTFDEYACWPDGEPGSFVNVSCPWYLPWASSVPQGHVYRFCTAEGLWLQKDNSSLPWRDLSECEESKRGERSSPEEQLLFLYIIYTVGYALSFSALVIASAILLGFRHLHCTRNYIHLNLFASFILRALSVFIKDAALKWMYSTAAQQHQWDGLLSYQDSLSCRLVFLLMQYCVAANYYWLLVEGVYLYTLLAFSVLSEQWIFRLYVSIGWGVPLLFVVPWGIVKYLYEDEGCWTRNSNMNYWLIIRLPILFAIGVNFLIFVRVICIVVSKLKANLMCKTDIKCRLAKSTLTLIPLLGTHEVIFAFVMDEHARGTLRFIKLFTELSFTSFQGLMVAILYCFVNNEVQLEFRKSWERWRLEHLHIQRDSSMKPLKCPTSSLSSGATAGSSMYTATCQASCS

The experiment concerns the target human GLP1R (Homo sapiens (Human), UniProt P43220). The experiment in a line: In vitro cAMP signal activation in human GLP1R stably-expressing cell line (hGLP1R-HEK293). The experiment is classed as cell-based. The conditions noted are these: cAMP concentration in hGLP1R-HEK293; 100% = 1 nM human GLP-1 (7-37). On the procedure:
<Test Example 1> Measurement of In Vitro cAMP Signal Activation of a Compound in Human GLP1R
A human GLP1R stably-expressing cell line (hGLP1R-HEK293) was used in the experiment. The cells were cultured in a Dulbecco's modified Eagle's medium (DMEM) containing 10% fetal bovine serum (Sigma-Aldrich), 100 units/mL penicillin G and 100 μg/mL streptomycin sulfate (Gibco), and 500 μg/mL Geneticin (Gibco), under a moist atmosphere containing 5% CO2, at 37° C.
hGLP1R-HEK293 was seeded in 96 well plates at 2.0×10^4 cells per well and cultured over night. The medium for culturing the cells was changed to 50 μL of Medium A (DMEM, 20 mM HEPES, 0.05% BSA, 0.5 mM 3-isobutyl-1-methylxanthine) the next day, and the cells were incubated at 37° C. for 30 min. Then, 50 μL of Medium B (DMEM, 20 mM HEPES, 0.05% BSA, 0.5 mM 3-isobutyl-1-methylxanthine) containing GLP-1 or the compound was added, and the cells were incubated at 37° C. for an additional 30 min. Then, 100 μL of Assay lysis buffer (Applied Bioscience) was added, and the cells were incubated at 37° C. for 30 min. The cAMP concentration was quantified using cAMP HiRange kit (Cisbio Bioassays).
By setting the cAMP concentration when the human GLP-1 (7-37) was put into action at a concentration of 1 nM to 100%, the cAMP concentration of each well was converted to a reaction rate (%).
As usually defined, the EC50 is the concentration needed to bring the measured effect to its halfway point. With `COCCn1ncc2cc(-n3ccn(-c4c5c(nn4-c4cc(C)c(F)c(C)c4)CCN(C(=O)c4cc6cc(C7CCOCC7)cc(F)c6n4[C@@]4(c6noc(=O)[nH]6)C[C@@H]4C)[C@H]5C)c3=O)ccc21` [compound 63, 3-[(1S,2S)-1-[7-fluoro-2-[(4S)-2-(4-fluoro-3,5-dimethylphenyl)-3-[3-[1-(2-methoxyethyl)indazol-5-yl]-2-oxoimidazol-1-yl]-4-methyl-6,7-dihydro-4H-pyrazolo[4,3-c]pyridine-5-carbonyl]-5-(oxan-4-yl)indol-1-yl]-2-methylcyclopropyl]-4H-1,2,4-oxadiazol-5-one], it took 1.1 nM to reach a half-maximal effect (EC50).

Consider `Cc1cc(-n2nc3c(c2-n2ccn(-c4ccc5c(cnn5C)c4)c2=O)[C@H](C)N(C(=O)c2cc4cc(-c5ccnc(N(C)C)c5C)ccc4n2[C@@]2(c4noc(=O)[nH]4)C[C@@H]2C)CC3)cc(C)c1F` [Example 15, 3-[(1S,2S)-1-[5-[2-(dimethylamino)-3-methylpyridin-4-yl]-2-[(4S)-2-(4-fluoro-3,5-dimethylphenyl)-4-methyl-3-[3-(1-methylindazol-5-yl)-2-oxoimidazol-1-yl]-6,7-dihydro-4H-pyrazolo[4,3-c]pyridine-5-carbonyl]indol-1-yl]-2-methylcyclopropyl]-4H-1,2,4-oxadiazol-5-one], for which the response was half-maximal at 2.2 nM (EC50).

As to `CCc1nccc(-c2ccc3c(c2)cc(C(=O)N2CCc4nn(-c5cc(C)c(F)c(C)c5)c(-n5ccn(-c6ccc(OC)c(F)c6)c5=O)c4C2)n3[C@@]2(c3noc(=O)[nH]3)C[C@@H]2C)c1C` [Example 4], the EC50 was 12 nM.

`Cc1cc(-n2nc3c(c2-n2ccn(-c4ccc5c(cnn5C)c4)c2=O)CN(C(=O)c2cc4cc([C@H]5CCOC(C)(C)C5)ccc4n2[C@@]2(c4noc(=O)[nH]4)C[C@@H]2C)CC3)cc(C)c1F` [compound 59, 3-[(1S,2S)-1-[5-[(4S)-2,2-dimethyloxan-4-yl]-2-[2-(4-fluoro-3,5-dimethylphenyl)-3-[3-(1-methylindazol-5-yl)-2-oxoimidazol-1-yl]-6,7-dihydro-4H-pyrazolo[4,3-c]pyridine-5-carbonyl]indol-1-yl]-2-methylcyclopropyl]-4H-1,2,4-oxadiazol-5-one]: the EC50 is 1.5 nM.

As for `Cc1cc(-n2nc3c(c2-n2ccn(-c4ccc5c(cnn5C)c4)c2=O)CN(C(=O)c2cc4cc(C5CCOCC5)ccc4n2[C@@]2(c4noc(=O)[nH]4)C[C@@H]2C)CC3)cc(C)c1F` [compound 54, 3-[(1S,2S)-1-[2-[2-(4-fluoro-3,5-dimethylphenyl)-3-[3-(1-methylindazol-5-yl)-2-oxoimidazol-1-yl]-6,7-dihydro-4H-pyrazolo[4,3-c]pyridine-5-carbonyl]-5-(oxan-4-yl)indol-1-yl]-2-methylcyclopropyl]-4H-1,2,4-oxadiazol-5-one], the concentration giving a half-maximal response (EC50) was found to be 3.9 nM.

Take `Cc1cc(-n2nc3c(c2-n2ccn(-c4ccc5c(cnn5C)c4)c2=O)[C@H](C)N(C(=O)c2cc4cc(C5CCOCC5)ccc4n2[C@@]2(c4noc(=O)[nH]4)C[C@@H]2C)[C@H](C)C3)cc(C)c1F` [compound 80, 3-[(1S,2S)-1-[2-[(4S,6R)-2-(4-fluoro-3,5-dimethylphenyl)-4,6-dimethyl-3-[3-(1-methylindazol-5-yl)-2-oxoimidazol-1-yl]-6,7-dihydro-4H-pyrazolo[4,3-c]pyridine-5-carbonyl]-5-(oxan-4-yl)indol-1-yl]-2-methylcyclopropyl]-4H-1,2,4-oxadiazol-5-one]: the EC50 stood at 2.4 nM.

The compound `Cc1cc(-n2ccn(-c3c4c(nn3-c3cc(C)c(F)c(C)c3)CCN(C(=O)c3cc5cc(C6CCOCC6)ccc5n3[C@@]3(c5noc(=O)[nH]5)C[C@@H]3C)[C@H]4C)c2=O)ccc1-c1cc(N(C)C)ncn1` [Example 25, 3-[(1S,2S)-1-[2-[(4S)-3-[3-[4-[6-(dimethylamino)pyrimidin-4-yl]-3-methylphenyl]-2-oxoimidazol-1-yl]-2-(4-fluoro-3,5-dimethylphenyl)-4-methyl-6,7-dihydro-4H-pyrazolo[4,3-c]pyridine-5-carbonyl]-5-(oxan-4-yl)indol-1-yl]-2-methylcyclopropyl]-4H-1,2,4-oxadiazol-5-one] displayed an EC50 of 4 nM.

In turn, `Cc1cc(-n2nc3c(c2-n2ccn(-c4ccc5c(C)nsc5c4)c2=O)[C@H](C)N(C(=O)c2cc4cc(C5CCOCC5)ccc4n2[C@@]2(c4noc(=O)[nH]4)C[C@@H]2C)CC3)cc(C)c1F` [Example 18, 3-[(1S,2S)-1-[2-[(4S)-2-(4-fluoro-3,5-dimethylphenyl)-4-methyl-3-[3-(3-methyl-1,2-benzothiazol-6-yl)-2-oxoimidazol-1-yl]-6,7-dihydro-4H-pyrazolo[4,3-c]pyridine-5-carbonyl]-5-(oxan-4-yl)indol-1-yl]-2-methylcyclopropyl]-4H-1,2,4-oxadiazol-5-one] displayed an EC50 of 1.3 nM.

Consider `COc1nccc(-c2ccc3c(c2)cc(C(=O)N2CCc4nn(-c5cc(C)c(F)c(C)c5)c(-n5ccn(-c6ccc7c(cnn7CC(C)(C)O)c6)c5=O)c4C2)n3[C@@]2(c3noc(=O)[nH]3)C[C@@H]2C)c1C` [Example 6, 3-[(1S,2S)-1-[2-[2-(4-fluoro-3,5-dimethylphenyl)-3-[3-[1-(2-hydroxy-2-methylpropyl)indazol-5-yl]-2-oxoimidazol-1-yl]-6,7-dihydro-4H-pyrazolo[4,3-c]pyridine-5-carbonyl]-5-(2-methoxy-3-methylpyridin-4-yl)indol-1-yl]-2-methylcyclopropyl]-4H-1,2,4-oxadiazol-5-one], for which a half-maximal response (EC50) required 2.9 nM.

`CCc1nccc(-c2ccc3c(c2)cc(C(=O)N2CCc4nn(-c5cc(C)c(F)c(C)c5)c(-n5ccn(-c6ccc7c(C)nsc7c6)c5=O)c4C2)n3[C@@]2(c3noc(=O)[nH]3)C[C@@H]2C)c1C` [Example 3] gave an EC50 of 6.1 nM.

Turning to `CCc1nccc(-c2ccc3c(c2)cc(C(=O)N2CCc4nn(-c5cc(C)c(F)c(C)c5)c(-n5ccn(-c6ccc7c(cnn7C)c6)c5=O)c4[C@@H]2C)n3[C@@]2(c3noc(=O)[nH]3)C[C@@H]2C)c1C` [compound 73, 3-[(1S,2S)-1-[5-(2-ethyl-3-methylpyridin-4-yl)-2-[(4S)-2-(4-fluoro-3,5-dimethylphenyl)-4-methyl-3-[3-(1-methylindazol-5-yl)-2-oxoimidazol-1-yl]-6,7-dihydro-4H-pyrazolo[4,3-c]pyridine-5-carbonyl]indol-1-yl]-2-methylcyclopropyl]-4H-1,2,4-oxadiazol-5-one], a half-maximal response (EC50) required 2.5 nM.

In the case of `COc1nccc(-c2cc3cc(C(=O)N4CCc5nn(-c6cc(C)c(F)c(C)c6)c(-n6ccn(-c7ccc8c(cnn8C)c7)c6=O)c5[C@@H]4C)n([C@@]4(c5noc(=O)[nH]5)C[C@@H]4C)c3cc2F)c1C` [compound 74, 3-[(1S,2S)-1-[6-Fluoro-2-[(4S)-2-(4-fluoro-3,5-dimethylphenyl)-4-methyl-3-[3-(1-methylindazol-5-yl)-2-oxoimidazol-1-yl]-6,7-dihydro-4H-pyrazolo[4,3-c]pyridine-5-carbonyl]-5-(2-methoxy-3-methylpyridin-4-yl)indol-1-yl]-2-methylcyclopropyl]-4H-1,2,4-oxadiazol-5-one], the EC50 worked out at 6.2 nM.

`Cc1cc(-n2nc3c(c2-n2ccn(-c4cc5cnn(C)c5cc4F)c2=O)[C@H](C)N(C(=O)c2cc4cc(C5CCOCC5)ccc4n2[C@@]2(c4noc(=O)[nH]4)C[C@@H]2C)CC3)cc(C)c1F` [Example 27, 3-[(1S,2S)-1-[2-[(4S)-2-(4-fluoro-3,5-dimethylphenyl)-3-[3-(6-fluoro-1-methylindazol-5-yl)-2-oxoimidazol-1-yl]-4-methyl-6,7-dihydro-4H-pyrazolo[4,3-c]pyridine-5-carbonyl]-5-(oxan-4-yl)indol-1-yl]-2-methylcyclopropyl]-4H-1,2,4-oxadiazol-5-one]: the EC50 was found to be 2.3 nM.

Compound `Cc1cc(-n2nc3c(c2-n2ccn(-c4ccc5c(cnn5[C@@H]5CCOC5)c4)c2=O)[C@H](C)N(C(=O)c2cc4cc(C5CCOCC5)cc(F)c4n2[C@@]2(c4noc(=O)[nH]4)C[C@@H]2C)CC3)cc(C)c1F` [compound 64] returned an EC50 of 2 nM.

In the case of `CCc1nccc(-c2ccc3c(c2)cc(C(=O)N2CCc4nn(-c5cc(C)c(F)c(C)c5)c(-n5ccn(-c6ccc7c(C)nn(C)c7c6)c5=O)c4C2)n3[C@@]2(c3noc(=O)[nH]3)C[C@@H]2C)c1C` [Example 5, 3-[(1S,2S)-1-[2-[3-[3-(1,3-dimethylindazol-6-yl)-2-oxoimidazol-1-yl]-2-(4-fluoro-3,5-dimethylphenyl)-6,7-dihydro-4H-pyrazolo[4,3-c]pyridine-5-carbonyl]-5-(2-ethyl-3-methylpyridin-4-yl)indol-1-yl]-2-methylcyclopropyl]-4H-1,2,4-oxadiazol-5-one], the concentration giving a half-maximal response (EC50) was determined as 6.1 nM.

`COCCn1ncc2c(F)c(-n3ccn(-c4c5c(nn4-c4ccc(F)c(C)c4)CCN(C(=O)c4cc6cc(C7CCOCC7)ccc6n4[C@@]4(c6noc(=O)[nH]6)C[C@@H]4C)[C@H]5C)c3=O)ccc21` [Example 47, 3-[(1S,2S)-1-[2-[(4S)-3-[3-[4-fluoro-1-(2-methoxyethyl)indazol-5-yl]-2-oxoimidazol-1-yl]-2-(4-fluoro-3-methylphenyl)-4-methyl-6,7-dihydro-4H-pyrazolo[4,3-c]pyridine-5-carbonyl]-5-(oxan-4-yl)indol-1-yl]-2-methylcyclopropyl]-4H-1,2,4-oxadiazol-5-one] had an EC50 of 2 nM.
